By pIC50 is commonly meant the negative decadic logarithm of the IC50, by convention in mol/L. Usually melting point stands for the temperature, or range, at which the solid turns liquid.

In one series the test system is ER/Nf-kB. Nature of the series: ER/NF-κB luciferase reporter assay in Ad5-wt-ER infected HAECT-1 cells (IL-1β induced). It is filed as cell-based, human. The conditions noted are these: for pIC50: Homo sapiens, HAECT1; for ER/Nf-kB Efficacy: relative to maximal inhibition observed with E2. The method, then: After four hours, cells were washed with EBM-BSA and incubated overnight in the same medium. […] After two hours, cells were washed and incubated at 34° C. for 1 hour. […] Control (no ER infection) cells were processed as above without Ad5-wt-hERα virus infection. […] Cells were subsequently washed with 300 μl of Dulbecco's phosphate buffered saline and lysed in 50 μl of Cell Culture Lysis Reagent (Promega). Luciferase was determined on a Wallac Victor^2 Luminometer (Gaithersburg, Md.) using 10 μl of lysate and mixing with 100 lμof Promega Luciferase Assay reagent. […] For IC50 and EC50 calculations, mean IL-6, luciferase or CK values versus log10 of the compound concentration were fitted to a four parameter logistic equation. The IC50/EC50 value, ‘Hill slope’, upper and lower limits of the curve were iteratively estimated.

A further series deals with creatine kinase. Nature of the series: Creatine kinase assay in Ad5-wt-ER infected HAECT-1 cells. It is filed as cell-based, human. The settings on record: Homo sapiens; for pEC50: HAECT1, CK stimulation, N/O = activity not observed at concentrations tested, read-out: CK IC50; for Emax: HAECT1, relative to maximal stimulation observed with E2, read-out: CK Efficacy. The procedure, abridged:
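Ad5-wt-hERα-infected HAECT-1 cells, with uninfected cells as controls; after infection, cells were washed, incubated overnight in EBM-BSA, then held at 34 °C for 1 h. Luciferase was read by luminometry on cell lysates. IC50/EC50 came from four-parameter logistic fits of mean IL-6, luciferase or CK values versus log10 compound concentration.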

Each structure is given as a SMILES string. pEC50, pIC50: −log10 of the molar value.

Compound `CC[C@H]1c2ccc(C#N)n2-c2cc(F)c(F)cc2N1S(=O)(=O)c1ccc(O)c(C)c1` [Example 11B, (S)-4-ethyl-7,8-difluoro-5-[(4-hydroxy-3-methylphenyl)sulfonyl]-4,5-dihydropyrrolo[1,2-a]quinoxaline-1-carbonitrile] showed a melting point of 208 to 210 °C. Also, in the series on ER/Nf-kB, the pIC50 is 6.48 and the “ER/Nf-kB Efficacy” value is reported as 96%. Moreover, in the series with creatine kinase, the pEC50 is 6.08 and the Emax was found to be 96%.

As to `CCC1c2ccc(C#N)n2-c2cc(F)c(F)cc2N1S(=O)(=O)c1ccc(O)c(C)c1` (centres unmarked) [Example 12, 4-ethyl-7,8-difluoro-5-[(4-hydroxy-3-methylphenyl)sulfonyl]-4,5-dihydropyrrolo[1,2-a]quinoxaline-1-carbonitrile], the melting point lay within 201 to 203 °C. Further, in the series with ER/Nf-kB, the pIC50 is 5.74 and the “ER/Nf-kB Efficacy” value is given as 91%.

The compound `CCC1c2ccc(C#N)n2-c2ccc(F)cc2N1S(=O)(=O)c1ccc(O)c(C)c1` (centres unmarked) [Example 33, 4-ethyl-7-fluoro-5-[(4-hydroxy-3-methylphenyl)sulfonyl]-4,5-dihydropyrrolo[1,2-a]quinoxaline-1-carbonitrile] came in with a melting point of 192 to 194 °C. Moreover, in the series on ER/Nf-kB, the pIC50 is 5.88 and the “ER/Nf-kB Efficacy” value turned out to be 208%.

On to `CCC1c2ccc(C#N)n2-c2ccc(F)cc2N1S(=O)(=O)c1ccc(O)cc1` (centres unmarked) [Example 35, 4-ethyl-7-fluoro-5-[(4-hydroxyphenyl)sulfonyl]-4,5-dihydropyrrolo[1,2-a]quinoxaline-1-carbonitrile], for which the melting point was 169 to 171 °C. In addition, in the series on ER/Nf-kB, the pIC50 was 6.02 and the “ER/Nf-kB Efficacy” value came out at 72%. In addition, in the series with creatine kinase, the pEC50 was 6.97 and the Emax was found to be 19%.

Compound `CCC1c2ccc(C#N)n2-c2ccc(C(F)(F)F)cc2N1S(=O)(=O)c1ccc(O)c(C)c1` (centres unmarked) [Example 59, 4-ethyl-5-[(4-hydroxy-3-methylphenyl)sulfonyl]-7-(trifluoromethyl)-4,5-dihydropyrrolo[1,2-a]quinoxaline-1-carbonitrile] yielded a melting point of 194 to 196 °C. In the series on ER/Nf-kB, the pIC50 was 5.01 and the “ER/Nf-kB Efficacy” value came out at 75%. For the same compound, in the series on creatine kinase, the pEC50 was 5.52 and the Emax was -13%.

The compound `CCC1c2cccn2-c2cc(O)c(F)cc2N1S(=O)(=O)c1ccc(O)c(C)c1` (centres unmarked) [Example 74, 4-ethyl-7-fluoro-5-[(4-hydroxy-3-methylphenyl)sulfonyl]-4,5-dihydropyrrolo[1,2-a]quinoxalin-8-ol] returned a melting point of 194 to 196 °C. In addition, in the series with ER/Nf-kB, the pIC50 was 6.80 and the “ER/Nf-kB Efficacy” value was found to be 75%.

The compound `CC[C@H]1c2cccn2-c2ccc(Br)cc2N1S(=O)(=O)c1ccc(O)cc1` [Example 77, 4-{[(4S)-7-bromo-4-ethylpyrrolo[1,2-a]quinoxalin-5(4H)-yl]sulfonyl}phenol] displayed a melting point of 187 to 189 °C. Further, in the series with ER/Nf-kB, the pIC50 is 7.96 and the “ER/Nf-kB Efficacy” value stood at 186%. Moreover, in the series on creatine kinase, the pEC50 is 6.67 and the Emax is 39%.

Source of the values: patent US7563793B2, “Pyrrolo[1,2-a]quinoxalin-5-(4H)-yl)sulfonyls and carbonyls and their use as estrogenic agents” (Wyeth, priority 2004, dated 2009).
